Measured values from PubChem BioAssay (NCI).
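Exposure lasted 48 hours, with cells grown in 96-well plates and compounds tested at five concentrations. The concentration for full growth arrest is given as TGI.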

Assays:
Test in all cases: growth of human tumour cells (NCI), 48 h
786-0 renal = tested on: 786-0 renal
A498 renal = tested on: A498 renal
A549 NSCLC = tested on: A549 NSCLC
ACHN renal = tested on: ACHN renal
BT-549 breast = tested on: BT-549 breast
CAKI-1 renal = tested on: CAKI-1 renal
CCRF-CEM leukemia = tested on: CCRF-CEM leukemia
COLO 205 colon = tested on: COLO 205 colon
DU-145 prostate = tested on: DU-145 prostate
EKVX NSCLC = tested on: EKVX NSCLC
HCC-2998 colon = tested on: HCC-2998 colon
HCT-116 colon = tested on: HCT-116 colon
HCT-15 colon = tested on: HCT-15 colon
HL-60(TB) leukemia = tested on: HL-60(TB) leukemia
HOP-62 NSCLC = tested on: HOP-62 NSCLC
HOP-92 NSCLC = tested on: HOP-92 NSCLC
HS 578T breast = tested on: HS 578T breast
HT29 colon = tested on: HT29 colon
IGROV1 ovarian = tested on: IGROV1 ovarian
K-562 leukemia = tested on: K-562 leukemia
KM12 colon = tested on: KM12 colon
LOX IMVI melanoma = tested on: LOX IMVI melanoma
M14 melanoma = tested on: M14 melanoma
MALME-3M melanoma = tested on: MALME-3M melanoma
MCF7 breast = tested on: MCF7 breast
MDA-MB-231 breast = tested on: MDA-MB-231 breast
MDA-MB-435 = tested on: MDA-MB-435
MDA-N = tested on: MDA-N
MOLT-4 leukemia = tested on: MOLT-4 leukemia
NCI-H226 lung = tested on: NCI-H226 lung
NCI-H23 lung = tested on: NCI-H23 lung
NCI-H460 lung = tested on: NCI-H460 lung
NCI-H522 lung = tested on: NCI-H522 lung
NCI/ADR-RES ovarian = tested on: NCI/ADR-RES ovarian
OVCAR-3 ovarian = tested on: OVCAR-3 ovarian
OVCAR-4 ovarian = tested on: OVCAR-4 ovarian
OVCAR-5 ovarian = tested on: OVCAR-5 ovarian
OVCAR-8 ovarian = tested on: OVCAR-8 ovarian
PC-3 prostate = tested on: PC-3 prostate
RPMI-8226 leukemia = tested on: RPMI-8226 leukemia
RXF 393 renal = tested on: RXF 393 renal
SF-268 CNS = tested on: SF-268 CNS
SF-295 CNS = tested on: SF-295 CNS
SF-539 CNS = tested on: SF-539 CNS
SK-MEL-2 melanoma = tested on: SK-MEL-2 melanoma
SK-MEL-28 melanoma = tested on: SK-MEL-28 melanoma
SK-MEL-5 melanoma = tested on: SK-MEL-5 melanoma
SK-OV-3 ovarian = tested on: SK-OV-3 ovarian
SN12C renal = tested on: SN12C renal
SNB-19 CNS = tested on: SNB-19 CNS
SNB-75 CNS = tested on: SNB-75 CNS
SR leukemia = tested on: SR leukemia
SW-620 colon = tested on: SW-620 colon
T-47D breast = tested on: T-47D breast
TK-10 renal = tested on: TK-10 renal
U251 CNS = tested on: U251 CNS
UACC-257 melanoma = tested on: UACC-257 melanoma
UACC-62 melanoma = tested on: UACC-62 melanoma
UO-31 renal = tested on: UO-31 renal

In the case of `O=C1C(N2CCN(c3ccccn3)CC2)=C(Cl)C(=O)c2ncccc21`, the TGI (786-0 renal) is reported as 3.21 µM, the TGI (A498 renal) is reported as greater than 10 µM and the TGI (A549 NSCLC) is reported as greater than 10 µM. It also gave a TGI (ACHN renal) of 4.91 µM, a TGI (BT-549 breast) greater than 10 µM and a TGI (CAKI-1 renal) of 2.12 µM. The TGI (CCRF-CEM leukemia) was 6.28 µM, the TGI (COLO 205 colon) was 3.49 µM and the TGI (DU-145 prostate) was greater than 10 µM. For the same compound, the TGI (EKVX NSCLC) was greater than 10 µM, the TGI (HCC-2998 colon) was greater than 6.52 µM and the TGI (HCT-116 colon) was 3.13 µM. It also gave a TGI (HCT-15 colon) of 4.06 µM, a TGI (HL-60(TB) leukemia) of 0.906 µM and a TGI (HOP-62 NSCLC) greater than 10 µM. It also gave a TGI (HOP-92 NSCLC) of 2.94 µM, a TGI (HS 578T breast) greater than 10 µM and a TGI (HT29 colon) greater than 6.16 µM. The TGI (IGROV1 ovarian) was greater than 10 µM, the TGI (K-562 leukemia) was greater than 10 µM and the TGI (KM12 colon) was greater than 5.95 µM. The TGI (LOX IMVI melanoma) was 5.35 µM, the TGI (M14 melanoma) was 3.82 µM and the TGI (MALME-3M melanoma) was 2.75 µM. The TGI (MCF7 breast) was 3.64 µM, the TGI (MDA-MB-231 breast) was greater than 7.14 µM and the TGI (MDA-MB-435) was greater than 5.27 µM. The TGI (MDA-N) was 3.08 µM, the TGI (MOLT-4 leukemia) was 5.99 µM and the TGI (NCI-H226 lung) was greater than 10 µM. The TGI (NCI-H23 lung) was 3.68 µM, the TGI (NCI-H460 lung) was greater than 10 µM and the TGI (NCI-H522 lung) was 1.03 µM. It also gave a TGI (NCI/ADR-RES ovarian) greater than 10 µM, a TGI (OVCAR-3 ovarian) of 3.95 µM and a TGI (OVCAR-4 ovarian) of 1.95 µM. For the same compound, the TGI (OVCAR-5 ovarian) was greater than 10 µM, the TGI (OVCAR-8 ovarian) was greater than 6.1 µM and the TGI (PC-3 prostate) was greater than 10 µM. For the same compound, the TGI (RPMI-8226 leukemia) was 1.87 µM, the TGI (RXF 393 renal) was 3.56 µM and the TGI (SF-268 CNS) was greater than 10 µM. It also gave a TGI (SF-295 CNS) greater than 10 µM, a TGI (SF-539 CNS) greater than 10 µM and a TGI (SK-MEL-2 melanoma) of 4.67 µM. It also gave a TGI (SK-MEL-28 melanoma) greater than 7.95 µM, a TGI (SK-MEL-5 melanoma) of 3.27 µM and a TGI (SK-OV-3 ovarian) greater than 10 µM. For the same compound, the TGI (SN12C renal) was 3.22 µM, the TGI (SNB-19 CNS) was greater than 10 µM and the TGI (SNB-75 CNS) was greater than 10 µM. For the same compound, the TGI (SR leukemia) was greater than 6.21 µM, the TGI (SW-620 colon) was 2.78 µM and the TGI (T-47D breast) was 4.09 µM. The TGI (TK-10 renal) was greater than 6.41 µM, the TGI (U251 CNS) was greater than 10 µM and the TGI (UACC-257 melanoma) was greater than 5.88 µM. For the same compound, the TGI (UACC-62 melanoma) was greater than 6.76 µM and the TGI (UO-31 renal) was greater than 5.53 µM.
For `CCN1CCC(O)(c2ccc(Oc3ccccc3)cc2)C(C(=O)c2ccc(Oc3ccccc3)cc2)C1` (stereo unspecified), the TGI (786-0 renal) was 18.7 µM, the TGI (A498 renal) was 30.4 µM and the TGI (A549 NSCLC) was 27.5 µM. It also gave a TGI (ACHN renal) of 29.8 µM, a TGI (BT-549 breast) of 22.5 µM and a TGI (CAKI-1 renal) of 31.2 µM. It also gave a TGI (CCRF-CEM leukemia) of 25.5 µM, a TGI (COLO 205 colon) of 30 µM and a TGI (DU-145 prostate) of 27.5 µM. It also gave a TGI (EKVX NSCLC) of 36.9 µM, a TGI (HCC-2998 colon) of 19.6 µM and a TGI (HCT-116 colon) of 21.2 µM. The TGI (HCT-15 colon) was 25.7 µM, the TGI (HL-60(TB) leukemia) was 14.1 µM and the TGI (HOP-62 NSCLC) was 25.3 µM. For the same compound, the TGI (HOP-92 NSCLC) was 22.3 µM, the TGI (HS 578T breast) was 78.1 µM and the TGI (HT29 colon) was 26.4 µM. It also gave a TGI (IGROV1 ovarian) of 33 µM, a TGI (K-562 leukemia) greater than 100 µM and a TGI (KM12 colon) of 18.9 µM. For the same compound, the TGI (LOX IMVI melanoma) was 16.9 µM, the TGI (M14 melanoma) was 26.3 µM and the TGI (MALME-3M melanoma) was 34.6 µM. For the same compound, the TGI (MCF7 breast) was 19.5 µM, the TGI (MDA-MB-231 breast) was 30.2 µM and the TGI (MDA-MB-435) was 26.2 µM. The TGI (MDA-N) was 26.7 µM, the TGI (MOLT-4 leukemia) was 32.1 µM and the TGI (NCI-H23 lung) was 27.7 µM. For the same compound, the TGI (NCI-H460 lung) was 13.2 µM, the TGI (NCI-H522 lung) was 43.9 µM and the TGI (NCI/ADR-RES ovarian) was 35.1 µM. It also gave a TGI (OVCAR-3 ovarian) of 31.9 µM, a TGI (OVCAR-4 ovarian) of 25.3 µM and a TGI (OVCAR-5 ovarian) of 31.3 µM. The TGI (OVCAR-8 ovarian) was 38.6 µM, the TGI (PC-3 prostate) was 27.1 µM and the TGI (RPMI-8226 leukemia) was 5.63 µM. It also gave a TGI (RXF 393 renal) of 53.4 µM, a TGI (SF-268 CNS) of 35.6 µM and a TGI (SF-295 CNS) of 27.5 µM. For the same compound, the TGI (SF-539 CNS) was 23.4 µM, the TGI (SK-MEL-2 melanoma) was 30.1 µM and the TGI (SK-MEL-28 melanoma) was 26.5 µM. The TGI (SK-MEL-5 melanoma) was 25.7 µM, the TGI (SN12C renal) was 29.5 µM and the TGI (SNB-19 CNS) was 32.6 µM. It also gave a TGI (SNB-75 CNS) of 28.9 µM, a TGI (SR leukemia) of 24.8 µM and a TGI (SW-620 colon) of 26.4 µM. For the same compound, the TGI (T-47D breast) was 28.4 µM, the TGI (TK-10 renal) was 27.3 µM and the TGI (U251 CNS) was 24.2 µM. It also gave a TGI (UACC-257 melanoma) of 26.3 µM, a TGI (UACC-62 melanoma) of 25.9 µM and a TGI (UO-31 renal) of 21.8 µM.
Compound `CC1OC(OC2C(O)COC(OC3C(C)OC(OC4C(OC(=O)[C@]56CCC(C)(C)C[C@@H]5C5=CCC7[C@@]8(C)C[C@H](O)[C@H](OC9OC(CO)C(O)C(OC%10OC(CO)C(O)C(O)C%10O)C9O)[C@@](C)(CO)[C@@H]8CC[C@@]7(C)[C@]5(C)CC6)OCC(O)C4O)C(O)C3OC3OCC(O)(CO)C3O)C2O)C(O)C(O)C1O` (stereo partly specified) has a TGI (786-0 renal) of 15.4 µM, a TGI (A498 renal) of 20.4 µM and a TGI (A549 NSCLC) of 13.9 µM. It also gave a TGI (ACHN renal) of 19.7 µM, a TGI (BT-549 breast) of 13.3 µM and a TGI (CAKI-1 renal) of 12.4 µM. For the same compound, the TGI (CCRF-CEM leukemia) was 15.4 µM, the TGI (COLO 205 colon) was 14.9 µM and the TGI (DU-145 prostate) was 16.2 µM. The TGI (EKVX NSCLC) was 13.2 µM, the TGI (HCC-2998 colon) was 20.8 µM and the TGI (HCT-116 colon) was 32.2 µM. For the same compound, the TGI (HCT-15 colon) was 19.1 µM, the TGI (HOP-62 NSCLC) was 20.7 µM and the TGI (HOP-92 NSCLC) was 19.7 µM. The TGI (HS 578T breast) was 22.4 µM, the TGI (K-562 leukemia) was 50 µM and the TGI (KM12 colon) was 26.2 µM. It also gave a TGI (LOX IMVI melanoma) of 17.8 µM, a TGI (M14 melanoma) of 13 µM and a TGI (MALME-3M melanoma) of 13.2 µM. For the same compound, the TGI (MCF7 breast) was 29.4 µM, the TGI (MDA-MB-231 breast) was 16.7 µM and the TGI (MDA-MB-435) was 24.4 µM. It also gave a TGI (MDA-N) of 19.2 µM, a TGI (MOLT-4 leukemia) of 30.1 µM and a TGI (NCI-H226 lung) of 23.4 µM. For the same compound, the TGI (NCI-H23 lung) was 14.3 µM, the TGI (NCI-H460 lung) was 36.2 µM and the TGI (NCI-H522 lung) was 17.4 µM. For the same compound, the TGI (NCI/ADR-RES ovarian) was 16.7 µM, the TGI (OVCAR-3 ovarian) was 19.1 µM and the TGI (OVCAR-4 ovarian) was 19.5 µM. It also gave a TGI (OVCAR-5 ovarian) of 17.4 µM, a TGI (OVCAR-8 ovarian) of 18.9 µM and a TGI (PC-3 prostate) of 13.7 µM. It also gave a TGI (RPMI-8226 leukemia) of 50 µM, a TGI (RXF 393 renal) of 17.2 µM and a TGI (SF-268 CNS) of 20.3 µM. It also gave a TGI (SF-295 CNS) of 18.6 µM, a TGI (SF-539 CNS) of 17.5 µM and a TGI (SK-MEL-28 melanoma) of 14 µM. For the same compound, the TGI (SK-MEL-5 melanoma) was 15.8 µM, the TGI (SK-OV-3 ovarian) was 18 µM and the TGI (SN12C renal) was 12 µM. It also gave a TGI (SNB-19 CNS) of 16.6 µM, a TGI (SNB-75 CNS) of 21.3 µM and a TGI (SR leukemia) of 16 µM. For the same compound, the TGI (SW-620 colon) was 15.7 µM, the TGI (T-47D breast) was 25 µM and the TGI (TK-10 renal) was 22.1 µM. It also gave a TGI (U251 CNS) of 20.6 µM, a TGI (UACC-257 melanoma) of 20.9 µM and a TGI (UACC-62 melanoma) of 22.9 µM. For the same compound, the TGI (UO-31 renal) was 10.3 µM.
